This is an account of results in US6566355B1 (Hoffmann-La Roche Inc., priority 1991, dated 2003).

One experiment deals with Citrobacter freundii. As to the kind of experiment: MIC in vitro of a 1:4 combination of ceftriaxone with a compound of formula I (test D). Type of experiment: cell-based. Particulars: 1:4 combination of ceftriaxone with the compound. The protocol: D. Determination of the β-lactamase-inhibiting activity by combination of a compound of general formula I with ceftriaxone
The minimum inhibitory concentration in vitro (MIC in μg/ml) of a 1:4 combination of ceftriaxone with a compound of formula I against Citrobacter freundii is measured and compiled in Table 2 hereinafter.

A further experiment addresses T1, β-lactamase (Citrobacter freundii, UniProt P05193).
T1 construct: Various β-lactamases can be isolated from penicillin- or cephalosporin-resistant bacterial strains such as; endogenous in cells; host or cells: Citrobacter freundii 1203 (enzyme purified from the crude cell extract, after ampicillin induction when necessary)
As to the kind of experiment: biochemical. In short, it runs like this:
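β-lactamase from C. freundii 1203 crude extract (French press, 20 mM Tris-HCl pH 7.0) assayed with 0.1 mM nitrocefin in 50 mM phosphate pH 7.0 at 37° C, enzyme set to ΔA/min about 0.1, read at 482 nm. IC50 is inhibitor concentration giving 50% inhibition of nitrocefin cleavage, determined graphically.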

The mark [1] stands for this setting: IC 50 nM, isolated β-lactamase of Citrobacter freundii, substrate nitrocefin 0.1 mM, 15 minutes pre-incubation with inhibitor, 37° C., pH 7.0.
Where [2] appears, read: isolated β-lactamase of Citrobacter freundii, substrate nitrocefin 0.1 mM, 15 minutes pre-incubation with inhibitor, 37° C., pH 7.0, read-out: IC 50 nM.

Counter-ions that a name gives are not always drawn. Like-named read-outs stand apart in the source and are kept apart here.

T1 sequence (P05193 21-381): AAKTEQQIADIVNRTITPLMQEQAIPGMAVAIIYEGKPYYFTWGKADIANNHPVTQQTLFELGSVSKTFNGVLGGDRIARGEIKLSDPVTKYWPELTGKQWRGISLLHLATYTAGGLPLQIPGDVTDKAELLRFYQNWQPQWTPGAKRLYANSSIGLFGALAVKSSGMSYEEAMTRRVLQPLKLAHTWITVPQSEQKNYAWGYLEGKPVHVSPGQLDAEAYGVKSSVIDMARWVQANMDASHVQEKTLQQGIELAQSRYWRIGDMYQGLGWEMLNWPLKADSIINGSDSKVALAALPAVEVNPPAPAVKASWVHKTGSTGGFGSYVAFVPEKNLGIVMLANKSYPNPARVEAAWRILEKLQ

By MIC is commonly meant the lowest concentration that inhibits growth of the organism. Consider `Cn1cnnc1SCC(=O)N1CC[C@@H]2[C@H]1C(=O)N2S(=O)(=O)[O-].[Na+]` [23(b), (1S,5R)-2-(4-Methyl-4H-1,2,4-triazol-3-ylsulfanylacetyl)-7-oxo-2,6-diazabicyclo[3.2.0]heptane-6-sulfonic acid sodium salt], for which the “MIC” value with Citrobacter freundii came out at 0.5 µg/mL. The same compound returned an IC50 against β-lactamase (setting [1]) of 50 nM.

Regarding `Cn1cccc1/C=C/C(=O)N1CC[C@@H]2[C@H]1C(=O)N2S(=O)(=O)[O-].[Na+]` [23(c), (1S,5R)-2-[(E)-3-(1-Methyl-pyrrol-2-yl)acryloyl]-7-oxo-2,6-diazabicyclo[3.2.0]heptane-6-sulfonic acid sodium salt], the minimal inhibitory concentration (MIC) with Citrobacter freundii was 8 µg/mL. At β-lactamase (setting [1]), this compound returned an IC50 of 420 nM.

`Cn1ccnc1SCC(=O)N1CC[C@@H]2[C@H]1C(=O)N2S(=O)(=O)[O-].[Na+]` [23(d), (1S,5R)-2-(1-Methyl-imidazol-2-ylsulfanylacetyl)-7-oxo-2,6-diazabicyclo[3.2.0]heptane-6-sulfonic acid sodium salt]: the minimum inhibitory concentration (MIC) in the experiment on Citrobacter freundii worked out at 1 µg/mL. The IC50 against β-lactamase (setting [1]) was 283 nM.

As for `O=C(/C=C/c1cc[nH]n1)N1CC[C@@H]2[C@H]1C(=O)N2S(=O)(=O)[O-].[Na+]` [23(e), (1S,5R)-7-Oxo-2-[(E)-3-pyrazol-3-yl-acryloyl]-2,6-diazabicyclo[3.2.0]heptane-6-sulfonic acid sodium salt], the “MIC” value with Citrobacter freundii was determined as 1 µg/mL. The compound further had an IC50 at β-lactamase (setting [1]) of 138 nM.

For the compound `O=C(CNc1cc[nH]c(=O)n1)N1CC[C@@H]2[C@H]1C(=O)N2S(=O)(=O)O` [23(f), (1S,5R)-7-Oxo-(2-oxo-1,2-dihydro-pyrimidin-4-ylaminoacctyl)-2,6-diazabicyclo[3.2.0]heptane-6-sulfonic acid sodium salt], the minimum inhibitory concentration (MIC) in the experiment with Citrobacter freundii came to 0.5 µg/mL. On β-lactamase, this compound showed an IC50 of 30 nM.

Turning to `Nc1nc(SCC(=O)N2CC[C@@H]3[C@H]2C(=O)N3S(=O)(=O)[O-])n(C(=O)OCc2ccccc2)n1.[Na+]` [23(g), (1S,5R)-2-(5-Amino-2-benzyloxycarbonyl-2H-1,2,4-triazol-3-ylsulfanyl-acetyl)-7-oxo-2,6-diazabicyclo[3.2.0]heptane-6-sulfonic acid sodium salt], the minimum inhibitory concentration (MIC) in the experiment on Citrobacter freundii worked out at 2 µg/mL. This compound also showed an IC50 against β-lactamase (setting [1]) of 280 nM.

On to `CC(C)=C[C@@H]1[C@@H](C(=O)N2CC[C@@H]3[C@H]2C(=O)N3S(=O)(=O)[O-])C1(C)C.[Na+]` [23(h), (1S,5R)-2-[(1R,3R)-2,2-Dimethyl-3-(2-methyl-propenyl)-cyclopropylcarbonyl]7-oxo-2,6-diazabicyclo[3.2.0]heptane-6-sulfonic acid sodium salt], for which the “MIC” value with Citrobacter freundii came to 16 µg/mL. This compound also came in with an IC50 at β-lactamase (setting [1]) of 920 nM.

As to `O=C(Nc1nnc(SCC(=O)N2CC[C@@H]3[C@H]2C(=O)N3S(=O)(=O)[O-])s1)OCc1ccccc1.[Na+]` [23(i), (1S,5R)-2-(5-Benzyloxycarbonylamino-1,3,4-thiadiazol-2-ylsulfanyl-acetyl)-7-oxo-2,6-diazabicyclo[3.2.0]heptane-6-sulfonic acid sodium salt], the minimum inhibitory concentration (MIC) in the experiment on Citrobacter freundii was determined as 1 µg/mL. Further, the IC50 on β-lactamase (setting [1]) is 70 nM.

Turning to `O=C(C=Cc1cncn1S(=O)(=O)[O-])N1CC[C@@H]2[C@H]1C(=O)N2S(=O)(=O)[O-].[Na+].[Na+]` [23(l), (1S,5R)-7-Oxo-2-[3-(1-sulfo-imidazol-5-yl)acryloyl]-2,6-diazabicyclo[3.2.0]heptane-6-sulfonic acid sodium salt], the minimal inhibitory concentration (MIC) with Citrobacter freundii came to 2 µg/mL. Moreover, the IC50 against β-lactamase (setting [1]) is 5 nM.

In the case of `O=C(OCc1ccccc1)N1CC[C@@H]2[C@H]1C(=O)N2S(=O)(=O)O` [Example 1(a), Benzyl (1S,5)-7-oxo-6-sulpho-2,6-diazabicyclo[3.2.0]heptane 2-carboxylate sodium salt], the minimal inhibitory concentration (MIC) in the experiment with Citrobacter freundii amounted to 8 µg/mL. At β-lactamase, this compound had an IC50 of 100 nM.

As for `O=C(Nc1ccccc1)N1CC[C@@H]2[C@H]1C(=O)N2S(=O)(=O)[O-].[Na+]` [Example 2, (1S,5R)-7-Oxo-2-(phenylcarbamoyl)-2,6-diazabicyclo[3.2.0]heptane-6-sulphonic acid sodium salt], the “MIC” value in the experiment with Citrobacter freundii was determined as 2 µg/mL. Further, the IC50 against β-lactamase (setting [1]) amounted to 220 nM.

In the case of `O=C(NCc1ccccc1)N1CC[C@@H]2[C@H]1C(=O)N2S(=O)(=O)O` [Example 3, (1S,5R)-2-(Benzylcarbamoyl)-7-oxo-2,6-diazabicyclo[3.2.0]heptane-6-sulphonic acid sodium salt], in the experiment on Citrobacter freundii, the minimum inhibitory concentration (MIC) was found to be 2 µg/mL. Besides, the IC50 on β-lactamase (setting [1]) was 330 nM.

With `O=C(/C=C/c1ccco1)N1CC[C@@H]2[C@H]1C(=O)N2S(=O)(=O)O` [Example 5(a), (1S,5R)-2-[(E)-3-(2-Furyl)acryloyl-7-oxo-2,6-diazabicyclo[3.20]heptane-6-sulphonic acid sodium salt], the “MIC” value with Citrobacter freundii was determined as 4 µg/mL. The same compound showed an IC50 against β-lactamase of 85 nM.

In the case of `N[C@@H](Cc1ccc(O)cc1)C(=O)N1CC[C@@H]2[C@H]1C(=O)N2S(=O)(=O)O` [Example 6(b), (1S,5R)-7-Oxo-2-L-tyrosyl-2,6-diazabicyclo[3.2.0]heptane-6-sulphonic acid], the “MIC” value in the experiment with Citrobacter freundii is 4 µg/mL. The IC50 at β-lactamase turned out to be 310 nM.

On to `COC1=C(C(=O)O)N2C(=O)C3C2C(C1)CN3C(=O)OC(C)(C)C` [Example 7, (1aS,3aR,6bR)-1,1a,3a,6b-Tetrahydro-5-methoxy-1-oxo-2,6a-diazacyclobuta[cd]indene-2,6(3H,4H)-dicarboxylic acid 2-t-butyl monoester], for which the minimum inhibitory concentration (MIC) in the experiment on Citrobacter freundii was found to be 4 µg/mL. On β-lactamase (setting [2]), the IC50 worked out at 505 nM.

For the compound `CC(=O)Oc1ccc(/C=C/C(=O)N2CC[C@@H]3[C@H]2C(=O)N3S(=O)(=O)[O-])cc1OC(C)=O.[Na+]` [Example 13, 4-[(E)-2-[[(1S,5R)-7-Oxo-6-sulpho-2,6-diazabicyclo[3.2.0]heptan-2-yl]carbonyl]vinyl]-o-phenylene diacetate sodium salt], in the experiment with Citrobacter freundii, the minimum inhibitory concentration (MIC) came to 4 µg/mL. Moreover, on β-lactamase (setting [1]), the IC50 came to 63 nM.

`O=C(NCc1ccco1)N1CC[C@@H]2[C@H]1C(=O)N2S(=O)(=O)O` [Example 17(a), (1S,5R)-2-(2-Furan-2-yl-methylcarbamoyl)-7-oxo-2,6-diazabicyclo[3.2.0]heptane-6-sulphonic acid sodium salt]: the “MIC” value with Citrobacter freundii is 2 µg/mL. Further, the IC50 on β-lactamase is 156 nM.

As for `O=C(CCC(=O)N1CC[C@@H]2[C@H]1C(=O)N2S(=O)(=O)O)NOCc1ccco1` [Example 19, sodium salt], the “MIC” value with Citrobacter freundii was 2 µg/mL. Also, the IC50 at β-lactamase (setting [1]) stood at 430 nM.

`O=C(CS(=O)(=O)c1ccc(O)c(O)c1)N1CC[C@@H]2[C@H]1C(=O)N2S(=O)(=O)O` [Example 20, (1S,5R)-2-[[(3,4-Dihydroxyphenyl)sulphonyl]acetyl]-7-oxo-2,6-diazabicyclo[3.2.0]heptane-6-sulphonic acid sodium salt]: in the experiment on Citrobacter freundii, the minimal inhibitory concentration (MIC) came to 4 µg/mL. This compound also had an IC50 at β-lactamase (setting [1]) of 165 nM.

Regarding `N[C@@H](C(=O)N1CC[C@@H]2[C@H]1C(=O)N2S(=O)(=O)O)c1ccc(O)c(O)c1.[Na]` [Example 21, (1S,5R)-2-[(R,S)-Amino-(3,4-dihydroxyphenyl)acetyl]-7-oxo-2,6-diazabicyclo[3.2.0]heptane-6-sulphonic acid sodium salt], the “MIC” value in the experiment with Citrobacter freundii stood at 4 µg/mL. In addition, on β-lactamase (setting [2]), the IC50 came out at 695 nM.

On to “(1S,5R)-2-[(2-Amino-4-thiazolyl)acetyl]-7-oxo-2,6-diazabicyclo[3.2.0]heptane-6-sulphonic acid triethylamine salt [6(o)]”, for which the minimum inhibitory concentration (MIC) in the experiment with Citrobacter freundii stood at 2 µg/mL. Also, the IC50 on β-lactamase (setting [2]) came to 350 nM.

In the case of “Mixture of (1S,5R)-2-(5-Amino-1H-tetrazol-1-ylacetyl) and (1S,5R)-2-(5-Amino-2H-tetrazol-2-ylacetyl)-7-oxo-2,6-diazabicyclo[3.2.0]heptane-6-sulfonic acid sodium salt (1:2) [23(k)]”, the minimal inhibitory concentration (MIC) with Citrobacter freundii is 2 µg/mL. Further, the IC50 at β-lactamase (setting [2]) is 273 nM.

For the compound “Mixture of (1S,5R)-2-[(E)-3-(1-Methyl-3- and -4- or -3- and -5- or -4- and -5-sulfo-pyrrol-2-yl)acryloyl]-7-oxo-2,6-diazabicyclo[3.2.0]heptane-6-sulfonic acid sodium salt (1:2) [23(j)]”, in the experiment on Citrobacter freundii, the minimal inhibitory concentration (MIC) turned out to be 1 µg/mL. In addition, the IC50 at β-lactamase (setting [2]) was 38 nM.
